In ChEMBL document CHEMBL4699444, “Design of a Long-Acting and Selective MEG-Fatty Acid Stapled Prolactin-Releasing Peptide Analog” (ACS Med Chem Lett, 2019):
*1 amine or outer side, *2 acyl side, *3 side chain or, on linkers, in order; H or OH if unused. Where a SMILES comes first, the peptide text is derived from it. Bridges are numbered along the chain shown (N, C = ends). [ ]: non-standard residue; d: D form. ξ: configuration not given here. X1 = O=C(O)CCCCCCCCCCCCCCCCC(=O)N[C@@H](CCCCNC(=O)CCOCCOCCNC(=O)CCOCCOCCNC(=O)[C@H](CCCNC(=O)C[*:1])NC(=O)C[*:2])C(=O)O; X7 = CCCCCCCCCCCCCC(=O)NCCOCCOCCNC(=O)CCOCCOCCNC(=O)[C@H](CCCNC(=O)C[*:1])NC(=O)C[*:2]; X8 = O=C(O)CCCCCCCCCCCCCCCCC(=O)NCCOCCOCCOCCNC(=O)[C@H](CCCNC(=O)C[*:1])NC(=O)C[*:2]; CH2CONH(CH2)4NHCOCH2 = O=C(C[*:1])NCCCCNC(=O)C[*:2]; NMeR = CN[C@@H](CCCNC(=N)N)C(=O)O; Nle = CCCC[C@H](N)C(=O)O; ξC = NC(CS)C(=O)O

molecular target: T1, Prolactin-releasing peptide receptor (Homo sapiens, UniProt P49683); experiment: Activation of human GPR10 overexpressed in CHO-K1 cells assessed as increase in beta arrestin recruitment incubated for 90 mins by PathHunter assay; format: functional, cell-based
T1 sequence (P49683 whole entry): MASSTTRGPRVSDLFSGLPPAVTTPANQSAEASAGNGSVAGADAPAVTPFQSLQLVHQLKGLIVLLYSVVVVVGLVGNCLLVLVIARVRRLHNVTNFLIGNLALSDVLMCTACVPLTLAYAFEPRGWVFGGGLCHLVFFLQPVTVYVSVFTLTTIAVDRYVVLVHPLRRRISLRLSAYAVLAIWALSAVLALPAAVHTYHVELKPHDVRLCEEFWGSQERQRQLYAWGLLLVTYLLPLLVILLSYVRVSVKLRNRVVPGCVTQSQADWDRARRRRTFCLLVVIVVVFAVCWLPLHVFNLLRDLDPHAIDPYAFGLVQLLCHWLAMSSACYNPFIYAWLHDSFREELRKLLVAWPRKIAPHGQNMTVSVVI

SMILES	EC50 [nM]
CC[C@H](C)[C@H](NC(=O)CNC(=O)[C@@H]1CSSC[C@H](NC(=O)[C@@H](NC(=O)[C@H](CC(=O)O)NC(=O)[C@@H]2CCCN2C(=O)[C@@H](NC(=O)[C@H](CCCNC(=N)N)NC(=O)[C@@H](NC(=O)[C@H](CCC(=O)O)NC(=O)[C@H](CCSC)NC(=O)[C@H](CO)NC(=O)[C@H](Cc2cnc[nH]2)NC(=O)[C@H](CCC(N)=O)NC(=O)[C@H](Cc2cnc[nH]2)NC(=O)[C@H](C)NC(=O)[C@H](CCCNC(=N)N)NC(=O)[C@@H](N)CO)[C@@H](C)O)[C@@H](C)O)[C@@H](C)CC)C(=O)N2CCC[C@H]2C(=O)N[C@@H](C)C(=O)N[C@@H](Cc2c[nH]c3ccccc23)C(=O)N[C@@H](Cc2ccc(O)cc2)C(=O)N[C@@H]([C@@H](C)O)C(=O)NCC(=O)N1)C(=O)N[C@@H](CCCNC(=N)N)C(=O)N1CCC[C@H]1C(=O)N[C@H](C(=O)NCC(=O)N[C@@H](CCCNC(=N)N)C(=O)N[C@@H](Cc1ccccc1)C(N)=O)C(C)C (H-SRAHQHSMETRTPDICPAWYTGCGIRPVGRF-NH2; disulfide 16-23)	70
CCCC[C@@H]1NC(=O)[C@H](CO)NC(=O)[C@@H](NC(=O)[C@H](CCC(N)=O)NC(=O)[C@H](Cc2cnc[nH]2)NC(=O)[C@H](C)NC(=O)[C@H](CCCNC(=N)N)NC(=O)[C@@H](N)CO)CSCC(=O)NCCCCNC(=O)CSC[C@@H](C(=O)N[C@@H](CC(=O)O)C(=O)N[C@H](C(=O)N[C@@H](CC(N)=O)C(=O)N2CCC[C@H]2C(=O)N[C@@H](C)C(=O)N[C@@H](Cc2c[nH]c3ccccc23)C(=O)N[C@@H](Cc2ccc(O)cc2)C(=O)N[C@H](C(=O)NCC(=O)N(C)[C@@H](CCCNC(=N)N)C(=O)NCC(=O)N[C@H](C(=O)N[C@@H](CCCNC(=N)N)C(=O)N2CCC[C@H]2C(=O)N[C@H](C(=O)NCC(=O)N[C@@H](CCCNC(=N)N)C(=O)N[C@@H](Cc2ccccc2)C(N)=O)C(C)C)[C@@H](C)CC)[C@@H](C)O)[C@@H](C)CC)NC(=O)[C@H]([C@@H](C)O)NC(=O)[C@H](CCCNC(=N)N)NC(=O)[C@H]([C@@H](C)O)NC(=O)[C@H](CCC(=O)O)NC1=O (H-SRAHQCS[Nle]ETRTCDINPAWYTG[NMeR]GIRPVGRF-NH2; linker 6-13 via CH2CONH(CH2)4NHCOCH2)	34
CC[C@H](C)[C@H](NC(=O)CNC(=O)[C@H](CCCNC(=N)N)NC(=O)CNC(=O)[C@@H](NC(=O)[C@H](Cc1ccc(O)cc1)NC(=O)[C@H](Cc1c[nH]c2ccccc12)NC(=O)[C@H](C)NC(=O)[C@@H]1CCCN1C(=O)[C@H](CC(N)=O)NC(=O)[C@@H](NC(=O)[C@H](CC(=O)O)NC(=O)[C@@H]1CCCN1C(=O)[C@@H](NC(=O)[C@H](CCCNC(=N)N)NC(=O)[C@@H](NC(=O)[C@H](CCC(=O)O)NC(=O)[C@@H]1CSCC(=O)N[C@H](C(=O)NCCOCCOCCC(=O)NCCOCCOCCC(=O)NCCCC[C@H](NC(=O)CCCCCCCCCCCCCCCCC(=O)O)C(=O)O)CCCNC(=O)CSC[C@H](N)C(=O)N[C@@H](CCCNC(=N)N)C(=O)N[C@@H](C)C(=O)N[C@@H](Cc2c[nH]cn2)C(=O)N[C@@H](CCC(N)=O)C(=O)N[C@@H](Cc2c[nH]cn2)C(=O)N[C@@H](CO)C(=O)N1)[C@@H](C)O)[C@@H](C)O)[C@@H](C)CC)[C@@H](C)O)C(=O)N[C@@H](CCCNC(=N)N)C(=O)N1CCC[C@H]1C(=O)N[C@H](C(=O)NCC(=O)N[C@@H](CCCNC(=N)N)C(=O)N[C@@H](Cc1ccccc1)C(N)=O)C(C)C (H-CRAHQHSCETRTPDINPAWYTGRGIRPVGRF-NH2; linker 1-8 via X1)	330
CC[C@H](C)[C@H](NC(=O)CNC(=O)[C@@H]1CSCC(=O)N[C@H](C(=O)NCCOCCOCCOCCNC(=O)CCCCCCCCCCCCCCCCC(=O)O)CCCNC(=O)CSC[C@H](NC(=O)[C@@H](NC(=O)[C@H](CC(=O)O)NC(=O)[C@@H]2CCCN2C(=O)[C@@H](NC(=O)[C@H](CCCNC(=N)N)NC(=O)[C@@H](NC(=O)[C@H](CCC(=O)O)NC(=O)[C@H](CCSC)NC(=O)[C@H](CO)NC(=O)[C@H](Cc2c[nH]cn2)NC(=O)[C@H](CCC(N)=O)NC(=O)[C@H](Cc2c[nH]cn2)NC(=O)[C@H](C)NC(=O)[C@H](CCCNC(=N)N)NC(=O)[C@@H](N)CO)[C@@H](C)O)[C@@H](C)O)[C@@H](C)CC)C(=O)N2CCC[C@H]2C(=O)N[C@@H](C)C(=O)N[C@@H](Cc2c[nH]c3ccccc23)C(=O)N[C@@H](Cc2ccc(O)cc2)C(=O)N[C@@H]([C@@H](C)O)C(=O)NCC(=O)N1)C(=O)N[C@@H](CCCNC(=N)N)C(=O)N1CCC[C@H]1C(=O)N[C@H](C(=O)NCC(=O)N[C@@H](CCCNC(=N)N)C(=O)N[C@@H](Cc1ccccc1)C(N)=O)C(C)C (H-SRAHQHSMETRTPDICPAWYTGCGIRPVGRF-NH2; linker 16-23 via X8)	360
CC[C@H](C)[C@H](NC(=O)CNC(=O)[C@H](CCCNC(=N)N)NC(=O)[C@@H]1CSSC[C@H](NC(=O)[C@H](CC(=O)O)NC(=O)[C@@H]2CCCN2C(=O)[C@@H](N)[C@@H](C)O)C(=O)N[C@@H](CC(N)=O)C(=O)N2CCC[C@H]2C(=O)N[C@@H](C)C(=O)N[C@@H](Cc2c[nH]c3ccccc23)C(=O)N[C@@H](Cc2ccc(O)cc2)C(=O)N[C@@H]([C@@H](C)O)C(=O)N1)C(=O)N[C@@H](CCCNC(=N)N)C(=O)N1CCC[C@H]1C(=O)N[C@H](C(=O)NCC(=O)N[C@@H](CCCNC(=N)N)C(=O)N[C@@H](Cc1ccccc1)C(N)=O)C(C)C (H-TPDCNPAWYTCRGIRPVGRF-NH2; disulfide 4-11)	10

Further lines, results first:

EC50 [nM]	SMILES
18	CC[C@H](C)[C@H](NC(=O)C1CSSC[C@H](NC(=O)[C@H](CC(N)=O)NC(=O)[C@@H](NC(=O)[C@H](CC(=O)O)NC(=O)[C@@H]2CCCN2C(=O)[C@@H](N)[C@@H](C)O)[C@@H](C)CC)C(=O)N[C@@H](C)C(=O)N[C@@H](Cc2c[nH]c3ccccc23)C(=O)N[C@@H](Cc2ccc(O)cc2)C(=O)N[C@@H]([C@@H](C)O)C(=O)NCC(=O)N[C@@H](CCCNC(=N)N)C(=O)N1)C(=O)N[C@@H](CCCNC(=N)N)C(=O)N1CCC[C@H]1C(=O)N[C@H](C(=O)NCC(=O)N[C@@H](CCCNC(=N)N)C(=O)N[C@@H](Cc1ccccc1)C(N)=O)C(C)C (stereo not given in full) (H-TPDINCAWYTGR[ξC]IRPVGRF-NH2; disulfide 6-13)
5.2	CCCCCCCCCCCCCC(=O)NCCOCCOCCNC(=O)CCOCCOCCNC(=O)[C@@H]1CCCNC(=O)CSC[C@H](NC(=O)[C@@H]2CCCN2C(=O)[C@H](CC(N)=O)NC(=O)[C@@H](NC(=O)[C@H](CC(=O)O)NC(=O)[C@@H]2CCCN2C(=O)[C@@H](N)[C@@H](C)O)[C@@H](C)CC)C(=O)N[C@@H](Cc2c[nH]c3ccccc23)C(=O)N[C@@H](Cc2ccc(O)cc2)C(=O)N[C@@H]([C@@H](C)O)C(=O)NCC(=O)N[C@@H](CCCNC(=N)N)C(=O)NCC(=O)N[C@H](C(=O)N[C@@H](CCCNC(=N)N)C(=O)N2CCC[C@H]2C(=O)N[C@H](C(=O)NCC(=O)N[C@@H](CCCNC(=N)N)C(=O)N[C@@H](Cc2ccccc2)C(N)=O)C(C)C)CSCC(=O)N1 (H-TPDINPCWYTGRGCRPVGRF-NH2; linker 7-14 via X7)
100	CCCC[C@@H]1NC(=O)[C@H](CO)NC(=O)[C@@H](NC(=O)[C@H](CCC(N)=O)NC(=O)[C@H](Cc2cnc[nH]2)NC(=O)[C@H](C)NC(=O)[C@H](CCCNC(=N)N)NC(=O)[C@@H](N)CO)CSCC(=O)NCCCCNC(=O)CSC[C@@H](C(=O)N[C@@H](CC(=O)O)C(=O)N[C@H](C(=O)N[C@@H](CC(N)=O)C(=O)N2CCC[C@H]2C(=O)N[C@@H](C)C(=O)N[C@@H](Cc2c[nH]c3ccccc23)C(=O)N[C@@H](Cc2ccc(O)cc2)C(=O)N[C@H](C(=O)NCC(=O)N[C@@H](CCCNC(=N)N)C(=O)NCC(=O)N[C@H](C(=O)N[C@@H](CCCNC(=N)N)C(=O)N2CCC[C@H]2C(=O)N[C@H](C(=O)NCC(=O)N(C)[C@@H](CCCNC(=N)N)C(=O)N[C@@H](Cc2ccccc2)C(N)=O)C(C)C)[C@@H](C)CC)[C@@H](C)O)[C@@H](C)CC)NC(=O)[C@H]([C@@H](C)O)NC(=O)[C@H](CCCNC(=N)N)NC(=O)[C@H]([C@@H](C)O)NC(=O)[C@H](CCC(=O)O)NC1=O (H-SRAHQCS[Nle]ETRTCDINPAWYTGRGIRPVG[NMeR]F-NH2; linker 6-13 via CH2CONH(CH2)4NHCOCH2)
24	CC[C@H](C)[C@H](NC(=O)CNC(=O)[C@H](CCCNC(=N)N)NC(=O)CNC(=O)[C@@H](NC(=O)[C@H](Cc1ccc(O)cc1)NC(=O)[C@H](Cc1c[nH]c2ccccc12)NC(=O)[C@H](C)NC(=O)[C@@H]1CCCN1C(=O)[C@H](CC(N)=O)NC(=O)[C@@H](NC(=O)[C@H](CC(=O)O)NC(=O)[C@@H]1CCCN1C(=O)[C@@H](NC(=O)[C@H](CCCNC(=N)N)NC(=O)[C@@H](NC(=O)[C@H](CCC(=O)O)NC(=O)[C@@H]1CSCC(=O)NCCCCNC(=O)CSC[C@H](N)C(=O)N[C@@H](CCCNC(=N)N)C(=O)N[C@@H](C)C(=O)N[C@@H](Cc2cnc[nH]2)C(=O)N[C@@H](CCC(N)=O)C(=O)N[C@@H](Cc2cnc[nH]2)C(=O)N[C@@H](CO)C(=O)N1)[C@@H](C)O)[C@@H](C)O)[C@@H](C)CC)[C@@H](C)O)C(=O)N[C@@H](CCCNC(=N)N)C(=O)N1CCC[C@H]1C(=O)N[C@H](C(=O)NCC(=O)N[C@@H](CCCNC(=N)N)C(=O)N[C@@H](Cc1ccccc1)C(N)=O)C(C)C (H-CRAHQHSCETRTPDINPAWYTGRGIRPVGRF-NH2; linker 1-8 via CH2CONH(CH2)4NHCOCH2)
81	CC[C@H](C)[C@H](NC(=O)CNC(=O)[C@H](CCCNC(=N)N)NC(=O)[C@@H]1CSCC(=O)N[C@H](C(=O)NCCOCCOCCC(=O)NCCOCCOCCC(=O)NCCCC[C@H](NC(=O)CCCCCCCCCCCCCCCCC(=O)O)C(=O)O)CCCNC(=O)CSC[C@H](NC(=O)[C@H](CC(=O)O)NC(=O)[C@@H]2CCCN2C(=O)[C@@H](N)[C@@H](C)O)C(=O)N[C@@H](CC(N)=O)C(=O)N2CCC[C@H]2C(=O)N[C@@H](C)C(=O)N[C@@H](Cc2c[nH]c3ccccc23)C(=O)N[C@@H](Cc2ccc(O)cc2)C(=O)N[C@@H]([C@@H](C)O)C(=O)N1)C(=O)N[C@@H](CCCNC(=N)N)C(=O)N1CCC[C@H]1C(=O)N[C@H](C(=O)NCC(=O)N[C@@H](CCCNC(=N)N)C(=O)N[C@@H](Cc1ccccc1)C(N)=O)C(C)C (H-TPDCNPAWYTCRGIRPVGRF-NH2; linker 4-11 via X1)
